Test results from article PMC7589783, “Newly Synthesized Imino-Derivatives Analogues of Resveratrol Exert Inhibitory Effects in Breast Tumor Cells” (International Journal of Molecular Sciences, 2020).
Where “and” joins values, the source holds several entries; their conditions need not be identical. Equal values may be shown once. Entries after “also recorded” stand apart in the source; their conditions may differ. Read-outs that look alike come from different tables or passages of the source.

Assays:
[1] = In vitro bioavailability, dialysis tubing procedure with pepsin and pancreatin digestion; assay type: in vitro ADME; settings: for In vitro bioavailability (%) 4 h pH 7.0: after pancreatin digestion (4 h); for In vitro bioavailability (%) 2 h pH 1.0: after pepsin digestion (2 h); for In vitro bioavailability (%) Total 6 h: total after pepsin (2 h) and pancreatin (4 h) digestions
Description: In vitro bioavailability studies of compounds 3, 4 (the salt of compound 3) and resveratrol were performed in solutions simulating gastric and intestinal environment through a modified version of the traditional technique of dialysis membranes. The method of the dialysis membrane is divided in two enzymatic digestion phases: A first phase in which the action of pepsin occurs and a second phase in which participates the pancreatin (see experimental section). Bioavailability is defined as the percentage of analyte recovered in the bio-accessible fraction after in vitro digestion, in relation to the original undigested sample, as calculated according to the following equation [32]:Bioavailability (%) = (Bioaccessible content/Total content) × 100
In vitro bioavailability studies were performed according to the dialysis tubing procedure as previously reported in literature.
For this purpose, 100 µL of each tested compound (10 mM in DMSO) were employed and the concentration of each sample was determined using a UV/VIS spectrometer V-530 (Jasco, Cremella (LC), Italy).
The percentages were calculated according to the equations obtained from the prepared calibration curves at pH 1.0 and 7.0, respectively, for the two tested molecules.
The experiments were carried out in triplicate.

[2] = system: human embryonic kidney 293 (HEK293) cells; experiment: MTT cell viability assay in HEK293 cells; assay type: cell-based; settings: for Anti-proliferative / inhibitory effects in non-tumoral HEK293 cells: result in words; for IC50: Homo sapiens, HEK293, 48 h treatment, MTT assay, read-out: IC50 (µM) ± S.D. HEK293
Description: (§1) SkBr3 cells were maintained in RPMI-1640 (Life Technologies, Milan, Italy) without phenol red, supplemented with 5% fetal bovine serum (FBS) and 100 μg/mL penicillin/streptomycin (Life Technologies, Milan, Italy). MCF-7 and HEK-293 cells were maintained in DMEM (Dulbecco’s modified Eagle’s medium) (Life Technologies, Milan, Italy) with phenol red, with a supplement of 5% FBS and 100 μg/mL of penicillin/streptomycin.
(§2) The effects of each compound on cell viability were determined by the MTT [3-(4,5-dimethylthiazol-2-yl)-2,5-diphenyltetrazolium bromide] assay, as previously reported. Cells were seeded in quadruplicate in 96-well plates in regular growth medium and grown until 70–80% confluence. […] Relative cell viability was determined by MTT assay according to the manufacturer’s protocol (Sigma-Aldrich, Milan, Italy). Mean absorbance for each drug dose was expressed as a percentage of the control untreated well absorbance and plotted versus drug concentration. IC50 values represent the drugs concentration able to reduce the cells viability of 50% respect to the untreated control cells (vehicle).

recombinant human topo I = biological target: T1, recombinant human topo I (Homo sapiens, UniProt P11387); experiment: Human topoisomerase I (hTopoI) relaxation assay; assay type: biochemical; settings: 50 μM
T1 construct: purchased TopoGEN, Port Orange, FL, USA
T1 sequence (P11387 1-765): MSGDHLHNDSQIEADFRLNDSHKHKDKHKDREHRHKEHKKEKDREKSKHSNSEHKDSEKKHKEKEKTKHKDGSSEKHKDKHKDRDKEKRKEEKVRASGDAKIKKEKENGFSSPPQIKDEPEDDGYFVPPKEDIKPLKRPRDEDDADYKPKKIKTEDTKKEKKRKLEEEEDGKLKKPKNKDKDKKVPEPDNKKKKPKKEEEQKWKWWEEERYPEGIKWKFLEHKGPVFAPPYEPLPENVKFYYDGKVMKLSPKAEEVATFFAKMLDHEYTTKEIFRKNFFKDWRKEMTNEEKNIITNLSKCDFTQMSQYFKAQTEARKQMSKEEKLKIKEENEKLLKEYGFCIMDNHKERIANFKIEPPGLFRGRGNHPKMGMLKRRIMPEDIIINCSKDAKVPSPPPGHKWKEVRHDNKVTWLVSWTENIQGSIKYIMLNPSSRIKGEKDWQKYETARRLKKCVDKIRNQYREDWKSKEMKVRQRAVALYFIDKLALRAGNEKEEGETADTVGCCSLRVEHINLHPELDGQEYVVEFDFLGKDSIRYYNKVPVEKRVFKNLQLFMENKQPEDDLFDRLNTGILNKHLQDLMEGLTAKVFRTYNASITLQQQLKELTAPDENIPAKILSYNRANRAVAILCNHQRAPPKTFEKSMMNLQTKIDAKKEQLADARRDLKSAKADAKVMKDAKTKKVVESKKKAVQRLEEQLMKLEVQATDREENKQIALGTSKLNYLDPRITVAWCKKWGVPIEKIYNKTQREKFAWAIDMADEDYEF
Description: Human topoisomerase I relaxation assays were performed incubating the supercoiled pHOT1 (used as substrate) with the recombinant human topo I (TopoGEN, Port Orange, FL, USA) and all the tested compounds, according to the guidelines of the manufacturer (TopoGEN, Port Orange, FL, USA), with some modifications.

[3] = system: MCF-7 breast cancer cells; experiment: MTT cell viability assay in MCF-7 cells; assay type: cell-based; settings: Homo sapiens
Description: as §1, §2

human topoisomerase II = biological target: T2, human topoisomerase II (Homo sapiens, UniProt P11388); experiment: Human topoisomerase II (hTopoII) decatenation assay; assay type: biochemical; settings: 50 μM
T2 construct: purchased TopoGEN, Port Orange, FL, USA
Description: Human topoisomerase II decatenation assays were carried out incubating the human topoisomerase II (TopoGEN, Port Orange, FL, USA) with kinetoplast DNA (used as substrate) and all the tested compounds, according to the guidelines of the manufacturer (TopoGEN, Port Orange, FL, USA), with some modifications.

MCF-7 cells = experiment: TUNEL assay in MCF-7 cells; assay type: cell-based, human
Description: (§3) Cell apoptosis was determined by TdT-mediated dUTP Nick-End Labeling (TUNEL) assay, conducted using DeadEnd Fluorometric TUNEL System (Promega, Milan, Italy) and performed according to the manufacturer’s instructions. […] After fixation, cells were permeabilized in 0.2% Triton X-100 solution in PBS for 5 min. After washing twice with washing buffer for 5 min, the cells were covered with equilibration buffer at room temperature for 5–10 min. The labeling reaction was performed using terminal deoxynucleotidyl transferase end-labeling TdT and fluorescein-dUTP cocktail for each sample and incubated for 1 h at 37 ◦C where TdT catalyzes the binding of fluorescein-dUTP to free 3′OH ends in the nicked DNA. After rinsing, cells were washed with 2 × SSC solution buffer and subsequently incubated with 4′,6-Diamidino-2-Phenylindole (DAPI, Sigma-Aldrich, Milan, Italy) to stain nuclei and analyzed using the Cytation 3 Cell Imaging Multimode Reader (BioTek, Winooski, VT, USA). Statistical analysis was done using ANOVA followed by Newman–Keuls’ testing to determine differences in means. p < 0.05 was considered as statistically significant.

[4] = system: SkBr3 breast cancer cells; experiment: MTT cell viability assay in SkBr3 cells; assay type: cell-based; settings: Homo sapiens
Description: as §1, §2

SkBr3 cells = experiment: TUNEL assay in SkBr3 cells; assay type: cell-based, human
Description: as §3

[5] = 50 µM for 48 h (data not shown)
[6] = MCF7, 48 h treatment, read-out: IC50 (µM) ± S.D. MCF-7
[7] = SK-BR-3, 48 h treatment, read-out: IC50 (µM) ± S.D. SkBr3

T2 sequence (P11388 whole entry): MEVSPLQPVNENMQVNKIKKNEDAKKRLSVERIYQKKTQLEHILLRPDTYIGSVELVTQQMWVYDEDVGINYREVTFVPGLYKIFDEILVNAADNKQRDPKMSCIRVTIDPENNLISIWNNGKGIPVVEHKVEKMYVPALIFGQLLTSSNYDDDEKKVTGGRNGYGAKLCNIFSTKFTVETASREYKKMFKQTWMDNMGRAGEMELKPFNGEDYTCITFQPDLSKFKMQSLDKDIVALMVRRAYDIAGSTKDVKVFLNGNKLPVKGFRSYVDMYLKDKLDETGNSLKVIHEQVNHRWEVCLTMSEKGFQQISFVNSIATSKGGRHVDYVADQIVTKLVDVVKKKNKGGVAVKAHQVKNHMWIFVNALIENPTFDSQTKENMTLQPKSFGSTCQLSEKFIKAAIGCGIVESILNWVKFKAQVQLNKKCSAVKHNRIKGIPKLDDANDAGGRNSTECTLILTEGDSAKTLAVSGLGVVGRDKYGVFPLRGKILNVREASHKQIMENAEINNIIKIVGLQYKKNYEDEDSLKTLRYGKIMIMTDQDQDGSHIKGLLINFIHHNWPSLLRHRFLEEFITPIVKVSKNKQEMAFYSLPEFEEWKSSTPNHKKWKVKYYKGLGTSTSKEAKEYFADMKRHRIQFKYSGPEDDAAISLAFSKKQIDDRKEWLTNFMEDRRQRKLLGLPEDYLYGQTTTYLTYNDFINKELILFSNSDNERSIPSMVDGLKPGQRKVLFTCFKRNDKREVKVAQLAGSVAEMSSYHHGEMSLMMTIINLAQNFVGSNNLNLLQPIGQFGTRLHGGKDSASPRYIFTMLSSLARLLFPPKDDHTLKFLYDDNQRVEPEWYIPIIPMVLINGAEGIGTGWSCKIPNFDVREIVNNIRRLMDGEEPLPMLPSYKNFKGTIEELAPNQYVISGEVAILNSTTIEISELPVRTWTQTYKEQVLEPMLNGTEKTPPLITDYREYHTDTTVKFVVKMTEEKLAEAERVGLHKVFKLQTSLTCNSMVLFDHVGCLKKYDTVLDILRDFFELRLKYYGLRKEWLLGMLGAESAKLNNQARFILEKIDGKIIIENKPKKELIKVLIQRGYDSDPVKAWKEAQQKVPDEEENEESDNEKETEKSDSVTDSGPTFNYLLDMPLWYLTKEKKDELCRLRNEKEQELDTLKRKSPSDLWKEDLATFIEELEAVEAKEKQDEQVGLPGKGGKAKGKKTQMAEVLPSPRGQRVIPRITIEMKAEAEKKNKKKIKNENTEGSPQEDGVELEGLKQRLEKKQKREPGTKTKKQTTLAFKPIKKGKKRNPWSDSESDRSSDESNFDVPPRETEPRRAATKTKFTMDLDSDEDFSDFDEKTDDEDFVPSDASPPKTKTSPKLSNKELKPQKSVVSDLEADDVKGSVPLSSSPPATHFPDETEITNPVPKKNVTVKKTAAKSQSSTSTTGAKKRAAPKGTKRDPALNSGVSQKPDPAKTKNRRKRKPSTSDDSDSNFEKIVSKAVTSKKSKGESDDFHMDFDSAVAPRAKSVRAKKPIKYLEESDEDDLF

| In vitro bioavailability (%) 4 h pH 7.0 [1] | In vitro bioavailability (%) 2 h pH 1.0 [1] | In vitro bioavailability (%) Total 6 h [1] | Inhibition of hTopoI (relaxation of supercoiled DNA) (recombinant human topo I) | Inhibition of hTopoII activity (kDNA decatenation) (human topoisomerase II) | IC50 [3, 6] | IC50 [4, 7] | SMILES | Anti-proliferative / inhibitory effects in non-tumoral HEK293 cells [2] | IC50 ([3]; MCF7, treatment time not given, read-out: IC50, cytotoxic activity, MCF-7) | TUNEL staining, MCF-7 (MCF-7 cells; [5]) | IC50 ([4]; SK-BR-3, treatment time not given, read-out: IC50, cytotoxic activity, SkBr3) | TUNEL staining, SkBr3 (SkBr3 cells; [5]) | IC50 [2] | Percentage of TUNEL-positive cells, MCF-7 (MCF-7 cells; 10 μM for 24 h, versus vehicle) | Percentage of TUNEL-positive cells, SkBr3 (SkBr3 cells; 10 μM for 24 h, versus vehicle) |
| --- | --- | --- | --- | --- | --- | --- | --- | --- | --- | --- | --- | --- | --- | --- | --- |
| 28% and 28 ± 0.9% | 17% and 17 ± 0.8% | 45% and 45 ± 1.3% | no inhibition of hTopoI was observed | able to inhibit |  |  | O=C(O)c1ccc(/N=C/c2cc(O)ccc2O)cc1 [Compound 4, (E)-4-(2,5-dihydroxybenzylidene)-imino-sodium benzoate] | did not elicit anti-proliferative effects; also recorded: did not induce inhibitory effects | 50 µM | positive for TUNEL staining | 62 µM | positive for TUNEL staining |  |  |  |
| 23 ± 0.8% | 12 ± 0.6% | 35% and 35 ± 1.1% | no inhibition of hTopoI was observed | inhibited the hTopoII | > 90 µM | > 90 µM | Oc1ccc(C=Cc2cc(O)cc(O)c2)cc1 [resveratrol, 3, 4′,5-trihydroxy-stilbene] |  |  |  |  |  | > 90 µM |  |  |
|  |  |  |  |  | > 90 µM | > 90 µM | O=C(O)c1ccc(/N=C/c2cc(O)cc(O)c2)cc1 [Compound 6, (E)-4-(3,5-dihydroxybenzylidene)-imino-benzoic acid] |  |  |  |  |  | > 90 µM |  |  |
| 31% and 31 ± 1.1% | 16% and 16 ± 0.7% | 47% and 47 ± 1.6% | no inhibition of hTopoI was observed | able to inhibit | 12 µM | 15 µM | O=C(O)c1ccc(/N=C/c2cc(O)ccc2O)cc1 [Compound 3, (E)-4-(2,5-dihydroxybenzylidene)-imino-benzoic acid] | did not elicit inhibitory effects; also recorded: did not induce inhibitory effects |  |  |  |  | > 90 µM | increased the percentage | increased the percentage |
